Laboratory results as given in ChEMBL document CHEMBL4261615, “Design, synthesis, biological evaluation and cellular imaging of imidazo[4,5-b]pyridine derivatives as potent and selective TAM inhibitors” (Bioorg Med Chem, 2018).

Experiments:
[1] = biological target: T1, Tyrosine-protein kinase Mer (Homo sapiens) (UniProt Q12866); experiment: Binding affinity to wild-type partial length human MER (R557 to L884 residues) expressed in bacterial expression system assessed as fraction of unbound kinase to substrate at 1 uM after 1 hr by KinomeScan assay
T1 sequence (whole entry): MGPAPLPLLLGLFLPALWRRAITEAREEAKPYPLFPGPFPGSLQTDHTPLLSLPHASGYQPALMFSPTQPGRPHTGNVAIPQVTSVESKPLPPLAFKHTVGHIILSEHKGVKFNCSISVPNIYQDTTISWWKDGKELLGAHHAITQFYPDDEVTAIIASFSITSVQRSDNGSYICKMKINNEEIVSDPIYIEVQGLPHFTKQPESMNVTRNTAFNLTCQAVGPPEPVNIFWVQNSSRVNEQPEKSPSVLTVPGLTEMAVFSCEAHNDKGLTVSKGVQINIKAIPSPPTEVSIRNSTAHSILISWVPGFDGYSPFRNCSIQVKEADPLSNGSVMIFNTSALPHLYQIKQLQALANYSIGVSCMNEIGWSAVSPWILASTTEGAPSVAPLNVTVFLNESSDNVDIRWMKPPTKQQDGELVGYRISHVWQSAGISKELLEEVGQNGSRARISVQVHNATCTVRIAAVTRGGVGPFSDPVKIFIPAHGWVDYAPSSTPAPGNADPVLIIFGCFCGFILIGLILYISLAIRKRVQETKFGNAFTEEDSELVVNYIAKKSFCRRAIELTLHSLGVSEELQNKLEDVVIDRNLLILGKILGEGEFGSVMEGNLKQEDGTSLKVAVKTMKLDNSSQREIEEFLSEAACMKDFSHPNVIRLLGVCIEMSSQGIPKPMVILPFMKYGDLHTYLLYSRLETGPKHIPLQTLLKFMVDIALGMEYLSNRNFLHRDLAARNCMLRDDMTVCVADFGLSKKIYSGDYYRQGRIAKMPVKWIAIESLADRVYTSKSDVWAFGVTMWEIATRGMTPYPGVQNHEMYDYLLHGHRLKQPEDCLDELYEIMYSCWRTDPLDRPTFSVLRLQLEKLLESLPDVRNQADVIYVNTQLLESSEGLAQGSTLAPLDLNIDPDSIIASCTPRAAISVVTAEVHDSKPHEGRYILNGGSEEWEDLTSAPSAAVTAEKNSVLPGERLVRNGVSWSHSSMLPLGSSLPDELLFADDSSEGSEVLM

[2] = biological target: T2, Tyrosine-protein kinase receptor UFO (Homo sapiens, UniProt P30530); experiment: Inhibition of recombinant His-tagged human Axl (473 to end residues) cytoplasmic domain expressed in insect system using poly (Glu-Ala-Tyr) peptide as substrate after 5 mins in presence of ADP by fluorescence analysis
T2 sequence (P30530 whole entry): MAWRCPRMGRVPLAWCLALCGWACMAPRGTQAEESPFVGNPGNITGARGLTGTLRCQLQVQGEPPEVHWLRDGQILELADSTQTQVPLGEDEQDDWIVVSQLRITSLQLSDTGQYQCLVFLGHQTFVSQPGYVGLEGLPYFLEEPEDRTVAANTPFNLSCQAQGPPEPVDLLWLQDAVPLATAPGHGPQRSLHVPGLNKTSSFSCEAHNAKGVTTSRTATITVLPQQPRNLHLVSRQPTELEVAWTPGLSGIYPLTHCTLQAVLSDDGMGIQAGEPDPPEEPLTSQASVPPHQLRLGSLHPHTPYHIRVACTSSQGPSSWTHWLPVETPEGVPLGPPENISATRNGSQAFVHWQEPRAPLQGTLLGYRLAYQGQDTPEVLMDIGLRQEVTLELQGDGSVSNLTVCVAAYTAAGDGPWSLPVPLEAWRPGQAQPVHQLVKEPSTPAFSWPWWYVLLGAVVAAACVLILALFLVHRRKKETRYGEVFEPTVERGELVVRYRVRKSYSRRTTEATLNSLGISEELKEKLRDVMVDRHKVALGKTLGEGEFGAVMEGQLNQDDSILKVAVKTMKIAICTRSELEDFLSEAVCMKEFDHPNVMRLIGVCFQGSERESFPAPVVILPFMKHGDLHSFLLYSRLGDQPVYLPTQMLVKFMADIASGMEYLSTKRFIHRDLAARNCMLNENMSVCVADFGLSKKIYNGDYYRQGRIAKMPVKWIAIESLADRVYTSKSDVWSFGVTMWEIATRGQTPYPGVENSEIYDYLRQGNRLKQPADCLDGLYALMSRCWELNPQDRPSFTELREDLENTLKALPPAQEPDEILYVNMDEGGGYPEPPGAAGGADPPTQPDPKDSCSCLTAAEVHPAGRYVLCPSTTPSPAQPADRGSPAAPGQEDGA

[3] = biological target: T3, Tyrosine-protein kinase receptor TYRO3 (Homo sapiens) (UniProt Q06418); experiment: Binding affinity to wild-type human partial length TYRO3 (S497 to T814 residues) expressed in bacterial expression system assessed as fraction of unbound kinase to substrate at 1 uM after 1 hr by KinomeScan assay
T3 sequence (whole entry): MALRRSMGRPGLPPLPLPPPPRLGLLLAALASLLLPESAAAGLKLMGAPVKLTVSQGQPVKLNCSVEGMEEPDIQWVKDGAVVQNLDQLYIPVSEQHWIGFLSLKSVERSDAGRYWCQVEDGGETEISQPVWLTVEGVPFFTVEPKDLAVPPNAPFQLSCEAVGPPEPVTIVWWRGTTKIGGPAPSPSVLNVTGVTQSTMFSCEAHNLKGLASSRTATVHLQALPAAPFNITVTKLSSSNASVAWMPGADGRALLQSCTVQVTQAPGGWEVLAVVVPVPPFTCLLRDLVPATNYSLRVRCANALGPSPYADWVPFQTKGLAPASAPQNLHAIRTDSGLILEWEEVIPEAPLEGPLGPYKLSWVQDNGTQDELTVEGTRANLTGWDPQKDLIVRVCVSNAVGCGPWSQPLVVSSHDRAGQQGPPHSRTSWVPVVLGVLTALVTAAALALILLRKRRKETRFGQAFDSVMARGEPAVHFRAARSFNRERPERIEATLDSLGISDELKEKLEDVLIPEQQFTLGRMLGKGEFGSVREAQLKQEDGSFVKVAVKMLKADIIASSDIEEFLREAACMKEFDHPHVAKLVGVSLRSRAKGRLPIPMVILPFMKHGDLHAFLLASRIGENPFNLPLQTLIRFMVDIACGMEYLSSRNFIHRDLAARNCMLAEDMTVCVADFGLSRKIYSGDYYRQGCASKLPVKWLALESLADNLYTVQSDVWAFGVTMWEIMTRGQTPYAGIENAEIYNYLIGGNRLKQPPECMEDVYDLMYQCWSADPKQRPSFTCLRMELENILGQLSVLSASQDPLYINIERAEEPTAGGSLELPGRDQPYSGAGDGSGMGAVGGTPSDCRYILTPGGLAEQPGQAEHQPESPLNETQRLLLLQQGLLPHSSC

[4] = biological target: T4, Tyrosine-protein kinase Mer (Homo sapiens, UniProt Q12866); experiment: Inhibition of recombinant GST-tagged human Mer (578 to 872 residues) cytoplasmic domain expressed in Baculovirus system using poly (Glu-Ala-Tyr) peptide as substrate after 5 mins in presence of ADP by fluorescence analysis
T4 sequence (Q12866 whole entry): T1 sequence (whole entry)

Which results are given for `Cc1cnc2[nH]cnc2c1Oc1ccc(NC(=O)c2cccn(-c3ccc(F)cc3)c2=O)cc1F`?
Activity [1]: 78%; IC50 [2]: > 100000 nM; Activity [3]: 0%; IC50 [4]: > 100000 nM

Which Activity [1] does the source give for `CC(C)c1nc2c(Oc3ccc(NC(=O)c4cccn(-c5ccc(F)cc5)c4=O)cc3F)ccnc2[nH]1` here?
Its Activity is 99.6%.

And the IC50 [2]?
Its IC50 is 70 nM.

And the Activity [3]?
The Activity was 39%.

And the IC50 [4]?
The IC50 was 40 nM.

`O=C(Nc1ccc(Oc2ccnc3[nH]cnc23)c(F)c1)c1cccn(-c2ccc(F)cc2)c1=O` was tested. Which Activity [1] did it give?
The Activity was 99.3%.

And the IC50 [2]?
The IC50 was 0.77 nM.

And the Activity [3]?
The Activity was 81%.

And the IC50 [4]?
The IC50 was 90 nM.

For `O=C(Nc1ccc(Oc2c(Br)cnc3[nH]cnc23)c(F)c1)c1cccn(-c2ccc(F)cc2)c1=O`, which Activity [1] is on record?
The Activity was 60%.

What about the IC50 [2] of the same compound?
The IC50 was 2000 nM.

What about the Activity [3] of the same compound?
The Activity was 11%.

What about the IC50 [4] of the same compound?
The IC50 was 9 nM.
